From patent publication US5482954A, “Signal transduction inhibitor triazole and diazole compounds” (priority 1994, dated 1996)

How the values were obtained:
CHOm5 cells [1] = assay: Carbachol-stimulated 45Ca2+ influx; type: cell-based, Chinese hamster; design: % Inhibition of 45Ca2+ Influx into CHOm5 Cells: concentration or dose not given beside the values; conditions: Table I; carbachol-stimulated
Protocol: (§1) Calcium influx was determined using two methods. The first method involved the use of ^45 Ca^2+, while the second method utilized a fluorescent intracellular calcium chelator, Fura-2. The method using Fura-2 is semi-quantitative and is preferred for kinetic analysis and screening whereas the ^45 Ca^2+ method is quantitative.
CHOm5 cells in monolayer culture were washed free of serum-containing media and incubated with either carbachol or the calcium ionophore A23187 (from Molecular Probes, Eugene, Oreg., USA) in the presence of ^45 Ca^2+ and defined buffer (E2 medium with 0.1 mM MgCl2 and 1.0 mM CaCl2). After incubation for 5 min, the radioactive buffer was rapidly and repeatedly washed off with media containing LaCl3, a competitor of calcium efflux. The cell monolayer was solubilized and the calcium uptake was determined by scintillation counting.
Stimulated uptake of radiolabelled calcium was measured as described above. The abbreviations CTL and CC are control and carbachol-stimulated calcium influx values. respectively.

A2058 cells [2] = assay: Proliferation of A2058 cells (monolayer growth, crystal violet); type: cell-based, human; conditions: Homo sapiens, A2058; Table H; 10 μM, 96 hr; read-out: GROWTH (% OF CONTROL)
Protocol: For the clonogenic assay, aliquots of 50,000 cells per well (24 well plates) were grown under standard tissue culture conditions in the presence of increasing doses or test compound (0-10 μg/mL) or vehicle control. After 96 hr, the cells were gently washed with PBS, fixed, and stained with 0.5% crystal violet nuclear stain in 20% methanol. Excess stain was removed with tap water and bound stain was eluted with an equal volume solution of 01N sodium citrate (pH 4.2) and absolute ethanol. Optical density (O.D.) of eluted crystal violet stain was determined at 540 nm. The results of dose-dependent inhibition of tumor cell proliferation by compound 1 are shown in FIG. 5, in which the data are expressed as percent of untreated control cell proliferation for each cell type. The degree of inhibition varied with the cell type and was maximal (76%) for the A2058 cell line.
A2058 human melanoma cells were used to test the effect of compounds 1 and 3-25 on cellular proliferation. The cells were cultured in the presence of the test compounds (10 μM) for 96 hr. fixed and stained with crystal violet as described above. Growth inhibition was determined as a percent of control growth (using either DMSO or PEG-400 as the vehicle) for each compound. Each experiment was run a minimum of three times and the average of the results for each compound is provided in Table H and in FIGS. 20A and 20B.

[3] = test system: 5R ras-transfected rat embryo fibroblast cell line; assay: Experimental pulmonary metastasis, tumor cells pretreated in vitro; type: in vivo, nude mice; conditions: cells treated overnight, 1-10 μM; 10 d
Protocol: This example illustrates the effect of selected compounds on the development of experimental pulmonary metastases, when the tumor cells are first incubated with the compound in vitro and subsequently injected into the tail vein of nude mice. In this example, both the 5R ras-transfected rat embryo fibroblast cell line and the HT-29 human colon cancer cell line were evaluated.
The 5R ras-transfected rat embryo fibroblast cell line forms confluent pulmonary metastases within 2-3 weeks after inoculation. For the experimental metastasis assay, 5R cells were treated in culture overnight with the test compounds (1-10 μM). After culture, the cells were harvested, washed and injected into the tail vein of six-week old nude mice. After 10 d, the mice were humanely sacrificed and the lungs were removed and fixed in Bouin's solution. The visible pulmonary metastases were counted.

A2058 cells [4] = assay: Colony formation (soft agar); type: cell-based, human
Protocol: Colony formation: Compound 1 was evaluated at three concentrations for inhibition of colony formation in both the A2058 and OVCAR3 cell lines. Colony number was determined in triplicate and compared to the vehicle control run on each 24 well plate to provide a percent. Colonies greater than 60 cells were counted at 100× under phase contrast. […] In a second study, selected compounds were evaluated for their effect on density-independent growth of the A2058 cell line in soft agar. Percent inhibition was determined over triplicate experiments involving three log molar concentrations of the test compound.

[5] = test system: signal transduction and tumor growth; assay: Biological and biochemical assays, summary; type: cell-based; conditions: summary of all assays
Excerpt: Compound 1 was inhibitory for the biological and biochemical assays.

CHOm5 cells [6] = assay: Carbachol-stimulated arachidonic acid release; type: cell-based, Chinese hamster; conditions: Table K
Excerpt: This example illustrates the effect of selected compounds on the release of arachidonic acid from carbachol-stimulated CHOm5 cells. Carbachol is a muscarinic agonist which in the muscarinic receptor transfected CHO cells stimulates the activation of phospholipase A2, resulting in arachidonic acid release and metabolism. Downstream metabolites of arachidonic acid, prostaglandins and leukotrienes are also second messengers.
The effect of compound 1 on arachidonic acid release from CHOm5 cells was determined by incubating the cells to isotopic equilibrium with labelled arachidonic acid, then washing the cells twice with 1 mL of serum-free media supplemented with 20 mM HEPES and 0.2% bovine serum albumin (fatty acid free) to trap the unincorporated labelled arachidonic acid, and then simultaneously adding carbachol (100 μM) and increasing concentrations of 1. After 15 min, the reaction was stopped by removing the incubation media which was then centrifuged at 10,000×g to eliminate any nonadherent cells.

A2058 cells [7] = assay: Ca2+ influx (receptor-operated); type: cell-based, human
Protocol: as §1
Additionally, CHOm5 cells and A2058-1F5 human melanoma cells adherent to glass coverslips, which had been precoated with collagen or poly-L lysine to promote adhesion, were loaded with the fluorescent intracellular calcium chelator, fura-2AM. This chelator penetrates cells where it is hydrolyzed to fura-2 which remains trapped in the cells. Excess fura-2AM is washed off the cells. Cells are studied in serum-free E2 media, containing known amounts of calcium and magnesium. The cells are subjected to treatment with carbachol (10 μM) with or without compounds 1 and 2, and with appropriate vehicle controls (DMSO or PEG-400) in a perifusion apparatus. This ligand is known to stimulate intracellular release of calcium and influx of extracellular calcium. Emitted light is measured at 510 nm after excitation at 340 and 380 nm, with the ratio of fluorescence of fura-2 being directly correlated with intracellular calcium concentrations.
Stimulated uptake of radiolabelled calcium was measured as described above. […]

[8] = test system: production of PGE2 and PGF2a; conditions: Honn, et al.; cited from earlier work

Structure (SMILES)	% Inhibition of 45Ca2+ Influx into CHOm5 Cells (CHOm5 cells [1])	activity at 10 µM (A2058 cells [2])	inhibition of pulmonary colonization [3]	COLONY FORMATION (% OF CONTROL) (A2058 cells [4]; Table H, soft agar)	Colony Formation (% of Control) (A2058 cells [4]; Table K)	inhibition in the biological and biochemical assays [5]	Arachidonic Acid Release (% of Control) (CHOm5 cells [6])	inhibition of stimulated changes in intracellular calcium (A2058 cells [7])	inhibition of phorbol ester-stimulated production of PGE2 and PGF2a [8]
NC(=O)c1nnn(Cc2ccc(C(=O)c3ccccc3)cc2)c1N [Compound 8]	0%	92.7 ± 9%	14%	93.4 ± 3 % OF CONTROL	93.4 ± 3 % of Control	did not inhibit any of the test assays	100 ± 15 % of Control	failed to inhibit	–
COc1ccc2c(c1)c(CC(=O)O)c(C)n2C(=O)c1ccc(Cl)cc1 [indomethacin]	–	–	–	–	–	–	–	–	selectively inhibited
